“Also recorded” adds a separate entry of the source. Structures can show the parent of a compound that is named as a salt. Where two headings read alike, the source gives them in different places. Values belong to the compound of their own block, whether it stands above or below them.
What was measured:
[1] = Surface normalized dissolution of ASD tablets (release, limit of congruency); type: physicochemical; conditions: for limit of congruency (LoC) of ATZ-PVPVA ASDs: ASD containing 5% w/w of the plasticizer; for limit of congruency (LoC) of LED-PVPVA ASDs: ASD containing 10% w/w of the plasticizer; for lag time in the release profile: ATZ-PVPVA ASD at the LoC (20% DL TEC, 25% DL TEAC and TBAC); for total release of LED / release of LED: LED 10% DL; for normalized release rate of drug and polymer versus neat PVPVA / increase in LoC of ATZ versus binary ASD: ATZ-PVPVA ASD; for normalized release rate of drug and polymer versus neat PVPVA: ATZ 10 DL+GTA, ATZ 25DL+GTB; for increase in LoC of LED versus binary ASD: LED-PVPVA ASD; for dissolution rate of PVPVA containing plasticizer versus neat PVPVA: PVPVA with 10% w/w plasticizer, no drug
Method: All dissolution experiments were conducted in 50 mM phosphate buffer pH 6.8 prepared by dissolving 3.52 g of sodium phosphate monobasic monohydrate and 3.48 g of sodium phosphate dibasic anhydrous to 1L with Milli-Q water. The pH was adjusted to pH 6.8 if needed using HCl or NaOH.
Surface normalized dissolution was employed to evaluate the release performance of the ASDs and to calculate the normalized release rate. A Hanson Vision G2 dissolution tester with a Vision heater (Teledyne Hanson Chatsworth, CA) was utilized. A tablet was prepared immediately prior to the dissolution test by compressing 100 mg of ASD in an 8 mm die at 2 500 psi for 60 seconds yielding a tablet surface are of 50 mm^2. The temperature was maintained at 37° C., the rotation speed was 100 rpm, and the dissolution medium was 50 mM phosphate buffer pH 6.8 degassed and pre-equilibrated at 37° C. 100 to 200 μl of sample was withdrawn every 5 min for the initial 20 minutes, then every 10 minutes until 60 minutes and finally at 75, 90 and 120 minutes. The medium was replenished after each sample withdrawal to maintain a constant volume.
The concentration of API and polymer during the dissolution was assessed by high performance liquid chromatography (HPLC) using an Agilent 1100 system (Agilent Technologies, Santa Clara, Calif.). An Ascentis® Express C18 10 cm×3 mm with 2.7 μm particle size column (Sigma-Aldrich St. Louis, Mo.) was employed for separation of ATZ, RTV, and LED. […] For ATZ and LED, the mobile phase was aqueous TFA 0.1% v/v:acetonitrile (ACN) 6:4 v/v at a flow rate of 0.5 ml/min, injection volume 10 detection wavelength (X.) 210 nm, and column temperature 40° C. For RTV, the mobile phase was aqueous TFA 0.1% v/v:ACN 6:4 v/v, flow rate 0.5 ml/min, injection volume 10 detection λ 241 nm and column temperature 40° C.
The surface normalized dissolution rate (R) was calculated based on the mg released versus time profile. The slope from cumulative mg release vs time represents the release rate (k). To normalize, k was divided by the tablet surface area (S, 0.5 cm^2) times the fraction of the component (x) (Equation 1)

[2] = Glass transition temperature (Tg) by DSC; type: physicochemical; conditions: for Tg of the API: neat API (dry Tg); for reduction of ASD Tg on increasing plasticizer from 5 to 10% w/w: LED 10% DL
Method: Glass transition temperature and plasticizer-API miscibility was determined using a TA Q2000 differential scanning calorimeter (DSC) (TA Instruments, New Castle, DE) with a refrigerated cooling accessory (RCS) using N2 as the purge gas at a flow of 50 ml/min. For Tg determination, around 5 mg of sample was accurately weighed into an aluminum pan with a Tzero lid and subject to a cool-heat-cool cycle. Samples were cooled at -20° C. and heated up to 220° C. The heating was done in modulated mode at a heating rate of 2° C/min with a modulation period of +/−1° C. every 60 seconds. The midpoint temperature of the heat capacity change in the thermogram from the second heating cycle scan was taken as the Tg. The DSC was calibrated with indium at the appropriate heating rate.

[3] = literature; cited from earlier work
[4] = Dynamic vapor sorption (DVS), isothermal water sorption; type: physicochemical; conditions: for effect of plasticizer on polymer (PVPVA) water sorption: PVPVA containing GTB or TBC
Method: The isothermal water sorption at 37° C. was measured for selected ASDs using a DVS-Advantage device (Surface Measurement System Ltd Allentown, Pa.). Around 5 mg of sample was first dried at 0% relative humidity (RH) and 37° C. for one hour followed by exposure to 95% RH and 37° C. for at least 8 hours. Percent of water sorbed and derivative of percent mass over time (dm/dT %) was analyzed.

[5] = API:plasticizer 8:1 miscibility and Tg depression by DSC; type: physicochemical
Method: API:plasticizer at a ratio 8:1 was prepared by rotary evaporation to evaluate miscibility and Tg depression produced by the plasticizer. 3 to 5 mg was accurately weighed in an aluminum pan with a hermetic lid with a pinhole. Since the Tg was evaluated after only 1 hour of vacuum drying to avoid crystallization, a second drying was done by employing an isothermal hold at 20° C. in the DSC with nitrogen flow for at least 20 minutes. Then, the sample was cooled to −60 and heated at 2° C./min to 210° C. with a modulation period +/−1° C. every 60 seconds.

[6] = 20% DL ATZ ternary ASD, 5% w/w plasticizer, 95% RH/37° C.

- increase in LoC of RTV versus binary ASD ([1]; RTV-PVPVA ASD with plasticizers GTB and TBC): 1.2 fold
- Tg of the API [2]: 50 °C
SMILES: CC(C)c1nc(CN(C)C(=O)N[C@H](C(=O)N[C@@H](Cc2ccccc2)C[C@H](O)[C@H](Cc2ccccc2)NC(=O)OCc2cncs2)C(C)C)cs1 [RTV, ritonavir, reference compound]
- limit of congruency (LoC) of PVPVA-based ASD, reported [3]: 25 % DL

- release from RTV-PVPVA ASD ([1]; 30% DL, 5% w/w plasticizer): Complete release
- release from RTV-PVPVA ASD ([1]; 35% DL, 5% w/w plasticizer): not at 35% DL
- limit of congruency (LoC) of ATZ-PVPVA ASDs [1]: 25 % DL
- limit of congruency (LoC) of LED-PVPVA ASDs [1]: 15 % DL
- increase in LoC of ATZ versus binary ASD ([1]; 5% w/w plasticizer): 5 fold
- release of LED ([1]; 10% w/w plasticizer): complete drug release
- increase in LoC of LED versus binary ASD ([1]; 10% w/w plasticizer): 3 fold
- water uptake versus binary 20% DL ATZ ASD [4, 6]: slight increase in water uptake
- water uptake at 10, 20 and 30% DL ([4]; ATZ ternary ASD containing 5% w/w TBC): similar
- effect of plasticizer on polymer (PVPVA) water sorption [4]: dramatically reduced
SMILES: CCCCOC(=O)CC(O)(CC(=O)OCCCC)C(=O)OCCCC [TBC, Tri-n-butyl citrate]
- dissolution rate of PVPVA containing plasticizer versus neat PVPVA [1]: as much as twice; also recorded: faster dissolution rate

- limit of congruency (LoC) of ATZ-PVPVA ASDs [1]: 20 % DL
- lag time in the release profile ([1]; 5% w/w plasticizer): around 20 min
- total release of LED ([1]; 5% w/w plasticizer): 12%
- reduction of ASD Tg on increasing plasticizer from 5 to 10% w/w [2]: 10 °C
SMILES: CCOC(=O)CC(O)(CC(=O)OCC)C(=O)OCC [TEC, triethyl citrate]
- water uptake versus binary 20% DL ATZ ASD [4, 6]: very similar water uptake as the binary ASD

- release from RTV-PVPVA ASD ([1]; 30% DL, 5% w/w plasticizer): Complete release
- release from RTV-PVPVA ASD ([1]; 35% DL, 5% w/w plasticizer): not at 35% DL
- limit of congruency (LoC) of ATZ-PVPVA ASDs [1]: 25 % DL
- limit of congruency (LoC) of LED-PVPVA ASDs [1]: 20 % DL
- increase in LoC of ATZ versus binary ASD ([1]; 5% w/w plasticizer): 5 fold
- normalized release rate of drug and polymer versus neat PVPVA ([1]; 5% w/w plasticizer): faster than that of neat PVPVA
- release of LED ([1]; 10% w/w plasticizer): complete drug release
- increase in LoC of LED versus binary ASD ([1]; 10% w/w plasticizer): 4 fold
- water uptake versus binary 20% DL ATZ ASD [4, 6]: more prominent increase of water uptake
- effect of plasticizer on polymer (PVPVA) water sorption [4]: dramatically reduced
SMILES: CCCC(=O)OCC(COC(=O)CCC)OC(=O)CCC [GTB, Glycerol tributyrate]
- dissolution rate of PVPVA containing plasticizer versus neat PVPVA [1]: as much as twice; also recorded: faster dissolution rate

- Tg of the API [2]: 160 °C
- Tg ([5]; LED:plasticizer 8:1 amorphous mix): 162 °C
SMILES: COC(=O)N[C@H](C(=O)N1CC2(CC2)C[C@H]1c1nc(-c2ccc3c(c2)C(F)(F)c2cc(-c4ccc5[nH]c([C@@H]6[C@H]7CC[C@H](C7)N6C(=O)[C@@H](NC(=O)OC)C(C)C)nc5c4)ccc2-3)c[nH]1)C(C)C [LED, ledipasvir]
- limit of congruency (LoC) of PVPVA-based ASD, reported [3]: ~5 % DL

- limit of congruency (LoC) of ATZ-PVPVA ASDs [1]: 7.5 % DL
- increase in LoC of ATZ versus binary ASD ([1]; 5% w/w plasticizer): 1.5 fold
SMILES: OCC(O)CO [glycerol, Glycerol]

- limit of congruency (LoC) of ATZ-PVPVA ASDs [1]: 7.5 % DL
- release of LED ([1]; 5% w/w plasticizer): complete release
SMILES: O=C(O)CC(O)(CC(=O)O)C(=O)O [citric acid]

Continued, compound first:

SMILES: CCOC(=O)CC(CC(=O)OCC)(OC(C)=O)C(=O)OCC [TEAC, triethyl acetyl citrate]
- limit of congruency (LoC) of ATZ-PVPVA ASDs [1]: 25 % DL
- limit of congruency (LoC) of LED-PVPVA ASDs [1]: 15 % DL
- lag time in the release profile ([1]; 5% w/w plasticizer): around 20 min
- total release of LED ([1]; 5% w/w plasticizer): 20%
- release of LED ([1]; 10% w/w plasticizer): complete drug release
- reduction of ASD Tg on increasing plasticizer from 5 to 10% w/w [2]: 14 °C
- water uptake versus binary 20% DL ATZ ASD [4]: slight increase in water uptake

SMILES: CC(=O)OCC(COC(C)=O)OC(C)=O [GTA, Glycerol triacetate]
- limit of congruency (LoC) of ATZ-PVPVA ASDs [1]: 10 % DL
- normalized release rate of drug and polymer versus neat PVPVA ([1]; 5% w/w plasticizer): faster than that of neat PVPVA

SMILES: Clc1ccc(COC(Cn2ccnc2)c2ccc(Cl)cc2Cl)c(Cl)c1 (stereo not shown) [miconazole]
- limit of congruency (LoC) of PVPVA-based ASD, reported [3]: 25 % DL

SMILES: CC(=O)OCC(CO)OC(C)=O (stereo not shown) [GDA, glycerol diacetate]
- limit of congruency (LoC) of ATZ-PVPVA ASDs [1]: 7.5 % DL

SMILES: CCCCOC(=O)CC(CC(=O)OCCCC)(OC(C)=O)C(=O)OCCCC [TBAC, Tributyl-o-acetylcitrate]
- limit of congruency (LoC) of ATZ-PVPVA ASDs [1]: 25 % DL
- lag time in the release profile ([1]; 5% w/w plasticizer): around 20 min

SMILES: COC(=O)N[C@H](C(=O)N[C@@H](Cc1ccccc1)[C@@H](O)CN(Cc1ccc(-c2ccccn2)cc1)NC(=O)[C@@H](NC(=O)OC)C(C)(C)C)C(C)(C)C [ATZ, atazanavir]
- Tg ([5]; ATZ:plasticizer 8:1 amorphous mix): 105.5 °C
- limit of congruency (LoC) of PVPVA-based ASD, reported [3]: ~5 % DL
